# Reference: patent publication US20180042873A1, “NOVEL METHODS” (Aeromics, Inc., priority 2014, published 2018)
# Assays:
# [1] = tested on: explanted heart from BALB/c mice; test: Cardiac explant experiment: apoptosis by Annexin V flow cytometry after 8 h Cold Ischemic Storage; parameters: species or system mouse; conditions: 10 μM in Ringer's solution, 8 hours cold storage at 0-4° C.
# Method: This experiment is a model for determining the extent of apoptosis occurring in an explanted heart from BALB/c mice. Hearts are perfused with Ringer's solution either supplemented with 10 μM of N-[3,5-bis(trifluoromethyl)phenyl]-5-chloro-2-hydroxybenzamide (Compound 1), or without such supplementation. The explanted hearts are then placed in Cold Ischemic Storage (at 0-4° C.) in their respective buffer solutions for 8 hours. The hearts are then photographed and triturated for analysis of apoptosis using Annexin V flow cytometry. Annexin V is used to label phosphatidylserine on the surface of cells, and this is a conventional marker for cells that have undergone apoptosis. […] In contrast, hearts maintained in the APQ4-inhibitor supplemented Ringer's solution show only about 8% apoptotic cells.
# [2] = tested on: cardiac allograft (BalbC donor heart in B6 recipient); test: Cardiac allograft rejection model (intraabdominal heterotopic vascularized cardiac transplantation between genetically mismatched mice); type: in vivo, mouse; conditions: for survival after 20 days: BalbC heart into B6, after 20 days; for survival after 50 days: BalbC heart into B6, after 50 days
# Method: The ability of an APQ inhibitor of the present disclosure to protect against transplant rejection is determined in an intraabdominal heterotopic vascularized cardiac transplantation model between genetically mismatched mice. Four conditions are compared: the use of an APQ4 inhibitor alone, the use of a CTLA4 Ig alone, the combination of an APQ4 inhibitor with a CTLA4 Ig, and a control.
# The donor mouse (BalbC, fully genetically mismatched with respect to the recipient mouse which is B6, C57BL/6) is given a 10 mg/kg IP bolus of 2-((3,5-bis(trifluoromethyl)phenyl)carbamoyl)-4-chlorophenyl dihydrogen phosphate in TrisBase 30 minutes prior to surgery.
# Before removing the heart, the donor is perfused with Ringer's solution containing 10 μM N-[3,5-bis(trifluoromethyl)phenyl]-5-chloro-2-hydroxybenzamide. After removal from the donor, the heart is stored at 0-4° C. for 8 hours in Ringer's solution containing 10 μM N-[3,5-bis(trifluoromethyl)phenyl]-5-chloro-2-hydroxybenzamide (Cold Ischemic Storage).
# 30 Minutes prior to surgery, the recipient mouse is given a 10 mg/kg IP bolus of 2-((3,5-bis(trifluoromethyl)phenyl)carbamoyl)-4-chlorophenyl dihydrogen phosphate in TrisBase. The heart is then transplanted into the recipient mouse (B6 mouse) using the vascularized heterotopic cardiac transplantation model. After closing, the recipient mouse receives 10 mg/kg IP injection of 2-((3,5-bis(trifluoromethyl)phenyl)carbamoyl)-4-chlorophenyl dihydrogen phosphate in TrisBase every 6 hours for 5 days.
# The recipient mouse (B6) is administered a single dose of Belatacept IP at 10 mg/kg on the day of the transplant surgery as well as a single dose of Belatacept IP at 10 mg/kg 24 hours after surgery.
# As a negative control, both the donor and recipient mice receive IP administration of TrisBase with neither an APQ4 inhibitor nor a CTLA4 Ig. Results
# The recipient mice are monitored until their hearts stops beating.
compound,measurement,setting,value
"O=C(Nc1cc(C(F)(F)F)cc(C(F)(F)F)c1)c1cc(Cl)ccc1O [Compound 1, N-[3,5-bis(trifluoromethyl)phenyl]-5-chloro-2-hydroxybenzamide]",apoptotic cells,[1],about 8%
"Belatacept [CTLA4 Ig, reference compound]",survival after 20 days,[2],approximately 60%
same,survival after 50 days,[2],about 40%
same,survival from about 60 days through the end of monitoring at 150 days,[2]; about 60 days to 150 days,about 13%
"O=C(Nc1cc(C(F)(F)F)cc(C(F)(F)F)c1)c1cc(Cl)ccc1OP(=O)(O)O [APQ4 inhibitor, 2-((3,5-bis(trifluoromethyl)phenyl)carbamoyl)-4-chlorophenyl dihydrogen phosphate]",survival after 20 days,[2],about 30%
same,survival after 50 days,[2],about 10%
same,survival from about 60 days through the end of monitoring at 120 days,[2]; about 60 days to 120 days,about 5%
